# Test results published in article PMC9152706, “Identification of the target and mode of action for the prokaryotic nucleotide excision repair inhibitor ATBC” (Bioscience Reports, 2022).
# Biological target: T1, UvrA (Escherichia coli, UniProt P0A698)
# T1 construct: full-length, C-terminal flexible linker, AviTag, TEV site and His tag; Ni-NTA purified from E. coli (BL21 delta-uvrA delta-uvrB used for expression); unlabelled; homodimer
# T1 sequence (P0A698 1-940): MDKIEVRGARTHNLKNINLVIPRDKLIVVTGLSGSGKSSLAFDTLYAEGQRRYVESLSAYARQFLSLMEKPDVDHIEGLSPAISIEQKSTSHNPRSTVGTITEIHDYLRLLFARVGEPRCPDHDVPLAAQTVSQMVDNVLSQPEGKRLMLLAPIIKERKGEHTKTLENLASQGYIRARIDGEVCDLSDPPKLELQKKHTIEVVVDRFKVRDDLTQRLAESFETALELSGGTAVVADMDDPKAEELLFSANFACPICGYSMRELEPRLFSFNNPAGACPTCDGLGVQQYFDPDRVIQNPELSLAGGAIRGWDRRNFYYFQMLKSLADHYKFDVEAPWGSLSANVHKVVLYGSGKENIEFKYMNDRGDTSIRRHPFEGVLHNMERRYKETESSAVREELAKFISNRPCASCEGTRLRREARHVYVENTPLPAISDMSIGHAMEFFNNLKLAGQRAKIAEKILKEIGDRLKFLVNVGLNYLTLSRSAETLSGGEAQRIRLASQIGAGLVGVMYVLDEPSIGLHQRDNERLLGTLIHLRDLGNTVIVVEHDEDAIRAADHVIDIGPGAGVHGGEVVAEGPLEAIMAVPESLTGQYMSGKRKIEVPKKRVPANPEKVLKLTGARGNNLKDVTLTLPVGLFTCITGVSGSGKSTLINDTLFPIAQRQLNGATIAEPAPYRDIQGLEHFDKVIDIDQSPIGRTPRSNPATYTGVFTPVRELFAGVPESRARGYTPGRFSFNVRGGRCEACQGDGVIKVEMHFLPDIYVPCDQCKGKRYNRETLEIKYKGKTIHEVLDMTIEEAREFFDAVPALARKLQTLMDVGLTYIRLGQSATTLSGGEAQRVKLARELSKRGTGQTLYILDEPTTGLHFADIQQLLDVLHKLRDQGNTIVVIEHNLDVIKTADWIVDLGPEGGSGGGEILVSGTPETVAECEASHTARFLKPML
# Test: NADH-linked ATPase assay (pyruvate kinase / lactate dehydrogenase)
# Type: biochemical
# Conditions: 50 µM ATBC, 5 min preincubation; 1 mM ATP; 50 mM Tris-HCl pH 7.5, 50 mM KCl, 10 mM MgCl2; room temperature; poorly soluble, nominal concentration; ATPase site proposed from docking
smiles,measurement,value
"Nc1nnc(-c2cc3c(ccc4ccccc43)oc2=O)s1 [ATBC, 2-(5-amino-1,3,4-thiadiazol-2-yl)benzo(f)chromen-3-one]",% reduction of kcat at 50 μM,~ 70%
